Several values for one entry are separate records, joined by “and”; a condition that tells them apart may be missing. Equal entries are not always repeated.
Assay: Biodistribution studies of 11C tracers
Format: in vivo, Wistar rats
Details: for SUV Blood / SUV Cerebellum / SUV Cerebrum total / SUV Cortex / SUV Hippocampus / SUV Striatum: normalized for body weight
Description: Biodistribution studies were carried out in healthy male Wistar rats (body weight 200-450 g) at 2 min, 30 min and 60 min post injection (p.i.) (n=3/time point). Rats were injected with about 11 MBq (2 min, 30 min analysis) or 22 MBq (60 min analysis) of the tracer via tail vein under anesthesia (2.5% isoflurane in O2 at 1 L/min flow rate) and sacrificed by decapitation at above specified time points. Blood and major organs were collected in tared tubes and weighed. The radioactivity in blood, organs and other body parts was measured using an automated gamma counter. The distribution of radioactivity in different parts of the body at different time points p.i. of the tracer was calculated and expressed as percentage of injected dose (% ID), and as percentage of injected dose per gram tissue (% ID/g) for the selected organs. % ID is calculated as cpm in organ/total cpm recovered. For calculation of total radioactivity in blood, blood mass was assumed to be 7% of the body mass.

Compound: [11CH3]Oc1ccc(F)cc1C1CCN(c2ccn3c(CC4CC4)nnc3c2Cl)CC1 [[^11C]B-4, 8-chloro-3-(cyclopropylmethyl)-7-[4-[5-fluoro-2-[^11C]methoxyphenyl]-1-piperidinyl]-1,2,4-triazolo[4,3-a]pyridine]
- % ID Blood (2 min p.i.): 5.6 % ID and 5.6 ± 0.4 % ID
- % ID Carcass (2 min p.i.): 42.0 ± 2.0 % ID
- % ID Cerebellum (2 min p.i.): 0.10 % ID and 0.100 ± 0.000 % ID
- % ID Cerebrum total (2 min p.i.): 0.45 % ID and 0.450 ± 0.029 % ID
- % ID Cortex (2 min p.i.): 0.092 ± 0.019 % ID
- % ID Heart (2 min p.i.): 4.1 ± 0.3 % ID
- % ID Hippocampus (2 min p.i.): 0.010 ± 0.001 % ID
- % ID Intestines (2 min p.i.): 7.3 ± 0.6 % ID
- % ID Kidneys (2 min p.i.): 6.4 ± 0.6 % ID
- % ID Liver (2 min p.i.): 29.9 ± 2.0 % ID
- % ID Lungs (2 min p.i.): 2.9 ± 0.4 % ID
- % ID Rest of cerebrum (2 min p.i.): 0.344 ± 0.047 % ID
- % ID Spleen + Pancreas (2 min p.i.): 1.9 ± 0.2 % ID
- % ID Stomach (2 min p.i.): 1.5 ± 0.3 % ID
- % ID Striatum (2 min p.i.): 0.014 ± 0.001 % ID
- % ID Urine (2 min p.i.): 0.0 ± 0.0 % ID
- Total brain uptake (2 min p.i.): 0.58 % ID and 0.58 ± 0.0 % ID
- SUV Blood (2 min p.i.): 0.80 ± 0.01
- SUV Cerebellum (2 min p.i.): 1.46 and 1.46 ± 0.02
- SUV Cerebrum total (2 min p.i.): 1.39 ± 0.01
- SUV Cortex (2 min p.i.): 1.65 ± 0.02
- SUV Hippocampus (2 min p.i.): 1.04 ± 0.01
- SUV Striatum (2 min p.i.): 1.46 and 1.46 ± 0.02
- % ID Blood (30 min p.i.): 2.8 ± 0.3 % ID
- % ID Carcass (30 min p.i.): 64.3 ± 5.8 % ID
- % ID Cerebellum (30 min p.i.): 0.191 ± 0.030 % ID
- % ID Cerebrum total (30 min p.i.): 0.694 ± 0.117 % ID
- % ID Cortex (30 min p.i.): 0.165 ± 0.081 % ID
- % ID Heart (30 min p.i.): 2.5 ± 0.4 % ID
- % ID Hippocampus (30 min p.i.): 0.026 ± 0.007 % ID
- % ID Intestines (30 min p.i.): 8.3 ± 2.0 % ID
- % ID Kidneys (30 min p.i.): 4.0 ± 0.7 % ID
- % ID Liver (30 min p.i.): 14.2 ± 2.4 % ID
- % ID Lungs (30 min p.i.): 0.7 ± 0.1 % ID
- % ID Rest of cerebrum (30 min p.i.): 0.469 ± 0.047 % ID
- % ID Spleen + Pancreas (30 min p.i.): 1.4 ± 0.2 % ID
- % ID Stomach (30 min p.i.): 2.1 ± 0.3 % ID
- % ID Striatum (30 min p.i.): 0.034 ± 0.005 % ID
- % ID Urine (30 min p.i.): 0.3 ± 0.2 % ID
- Total brain uptake (30 min p.i.): 0.93 ± 0.2 % ID
- SUV Blood (30 min p.i.): 0.40 ± 0.01
- SUV Cerebellum (30 min p.i.): 2.33 ± 0.04
- SUV Cerebrum total (30 min p.i.): 1.66 ± 0.03
- SUV Cortex (30 min p.i.): 1.87 ± 0.02
- SUV Hippocampus (30 min p.i.): 1.57 ± 0.03
- SUV Striatum (30 min p.i.): 2.31 ± 0.04
- % ID Blood (60 min p.i.): 3.3 % ID and 3.3 ± 0.2 % ID
- % ID Carcass (60 min p.i.): 62.8 ± 2.5 % ID
- % ID Cerebellum (60 min p.i.): 0.144 ± 0.021 % ID
- % ID Cerebrum total (60 min p.i.): 0.596 ± 0.128 % ID
- % ID Cortex (60 min p.i.): 0.097 ± 0.039 % ID
- % ID Heart (60 min p.i.): 1.3 ± 0.3 % ID
- % ID Hippocampus (60 min p.i.): 0.021 ± 0.005 % ID
- % ID Intestines (60 min p.i.): 11.1 ± 0.9 % ID
- % ID Kidneys (60 min p.i.): 2.9 ± 0.4 % ID
- % ID Liver (60 min p.i.): 15.4 ± 0.9 % ID
- % ID Lungs (60 min p.i.): 0.5 ± 0.1 % ID
- % ID Rest of cerebrum (60 min p.i.): 0.450 ± 0.086 % ID
- % ID Spleen + Pancreas (60 min p.i.): 1.3 ± 0.2 % ID
- % ID Stomach (60 min p.i.): 1.6 ± 0.3 % ID
- % ID Striatum (60 min p.i.): 0.029 ± 0.009 % ID
- % ID Urine (60 min p.i.): 0.6 ± 0.1 % ID
- % ID present in liver and intestines (60 min p.i.): 26.5 % ID
- % ID present in the urinary system (60 min p.i.): 3.5 % ID
- Total brain uptake (60 min p.i.): 0.76 ± 0.1 % ID
- SUV Blood (60 min p.i.): 0.50 ± 0.00
- SUV Cerebellum (60 min p.i.): 1.68 ± 0.04
- SUV Cerebrum total (60 min p.i.): 1.40 ± 0.03
- SUV Cortex (60 min p.i.): 1.34 ± 0.02
- SUV Hippocampus (60 min p.i.): 1.13 ± 0.02
- SUV Striatum (60 min p.i.): 1.78 ± 0.04
- % ID present in the carcass (at all time points examined): ~56 % ID
